Laboratory results published in patent US20060252040A1, “Strand specific detection and quantification” (priority 2002, published 2006).

Key:
Dengue 2 virus [1] = assay: Plaque assay of supernatants from Dengue-infected BHK-21 cells grown with ribavirin; type: cell-based; details: m.o.i 0.00125, supernatants harvested day 3 post-infection, varying concentrations of ribavirin
Procedure: (§1) Dengue virus infection and titration: Monolayers of C6/36 or BHK-21 cells were grown in 24 well plates and infected the next day with Dengue 2 virus. After adsorption for 1 hour, unbound viruses were removed by aspiration, the cells rinsed with PBS and grown in their respective maintenance media. Cells without Dengue virus infection, or inoculated with heat-inactivated virus (30 minutes at 56° C.), were used as controls. In some experiments, BHK-21 cells were infected with Dengue 2 virus and grown in the absence or presence of varying concentrations of ribavirin (1-fl-D-ribofuranosyl-1,2,4-triazole-3-carboximide; Sigma, St. Louis, Mo.) to inhibit viral transcription. Cytotoxicity of the cells due to ribavirin treatment was determined by CytoTox 96® Non-Radioactive Cytotoxicity Assay (Promega Corporation, Madison, Wis.). The titer of Dengue 2 virus was determined by plaque assay with BHK-21 cells. […] At day 6 post-infection, cells were fixed and stained with 1% crystal violet-4% formalin solution in phosphate-buffered saline (PBS), and the plaque numbers counted. […]
(§2) To correlate the levels of replicating virus and the effects of ribavirin, BHK-21 cells were initially infected with Dengue virus at an m.o.i of 0.00125, in the absence or in the presence of varying concentrations of ribavirin. […] The results further validated the utility of this method to quantify the replicative form of the virus.

Dengue 2 virus [2] = assay: RT and real-time quantitative PCR of Dengue RNA in infected BHK-21 cells treated with ribavirin; type: cell-based; details: m.o.i 0.00125, day 3 post-infection
Procedure: RT-PCR and real-time quantitative PCR of Dengue nucleic acids: Total RNA was prepared from infected cells using the TRizol® Reagent (Invitrogen Life Technologies, Carlsbad, Calif.) according to manufacturer's instructions. The RNA obtained was quantified by spectrophotometry, and their integrity analyzed by gel electrophoresis. The RT reaction was performed at 42° C. on 2-5 ug of total RNA as described (21) using 100 U of M-MLV (Promega Corporation, Madison, Wis.) with either 12.5 pmoles of random hexamers (Promega Corporation, Madison, Wis.) or DNS-1 (5′-[…]-3′ (SEQ ID NO: 5)) in a total volume of 10 ul. […] The calculated ΔG of the hairpin loop at the RT step was −2.9 kcal/mol, with a Tm (melting temperature) of 62° C. […] However, with the conditions used for PCR, the ΔG and the Tm of the hairpin loop were −0.4 kcal/mol and 64° C. respectively.
All real-time quantitative PCR was performed on the iCycler jQ™ Multi-Color Real Time PCR Detection System (Bio-Rad, Hercules, Calif.). The threshold cycles (Ct) were calculated using the Optical interface v2.3B (Bio-Rad, Hercules, Calif.). […] Unless stated otherwise, all real-time quantitative PCR was performed with 40 cycles of 30 s denaturation at 95° C., 30 s annealing at 60° C. and 30 s extension at 72° C. […]

BHK-21 cells = assay: Cytotoxicity by LDH release (CytoTox 96 Non-Radioactive Cytotoxicity Assay); type: cell-based, hamster; details: highest concentration used, 10 ug/ml, day 3 post-infection
Procedure: as §1, §2

[3] = test system: RNA viruses including Dengue; details: Koff et al., 1982; Sidwell, 1979; cited from earlier work

NC(=O)c1ncn([C@@H]2O[C@H](CO)[C@@H](O)[C@H]2O)n1 [Ribavirin, 1-fl-D-ribofuranosyl-1,2,4-triazole-3-carboximide]
viral replication (relative PFU) (Dengue 2 virus [1]): inhibited viral replication in a concentration dependent manner
replicative, negative Dengue RNA strand (Dengue 2 virus [2]; RT with DNS-1, increasing concentrations of ribavirin): concomitant decrease with increasing concentrations of ribavirin
viral transcripts, random hexamer-primed RT, primers to the envelope region (Dengue 2 virus [2]; varying concentrations of ribavirin): corresponding decrease in viral transcripts
cell death (LDH release) (BHK-21 cells): did not induce detectable cell death
replication of RNA viruses [3]: known to inhibit the replication of many RNA viruses including Dengue
